Where two headings read alike, the source gives them in different places. One block for each compound: values may come before it. Where a SMILES comes first, the peptide text is derived from it. Bridges are numbered along the chain shown (N, C = ends). [ ]: non-standard residue; d: D form. PEG12 = NCCOCCOCCOCCOCCOCCOCCOCCOCCOCCOCCOCCOCCC(=O)O; NMePhe(3-Cl) = CN[C@@H](Cc1cccc(Cl)c1)C(=O)O; NMeW = CN[C@@H](Cc1c[nH]c2ccccc12)C(=O)O; NMeY = CN[C@@H](Cc1ccc(O)cc1)C(=O)O; NMeF = CN[C@@H](Cc1ccccc1)C(=O)O; Ahp(2) = CCCCC[C@H](N)C(=O)O
Target: transferrin receptor (hTfR) (Homo sapiens, UniProt P02786)
Assay: Intermolecular interaction evaluation test between transferrin receptor (hTfR) and peptide by surface plasmon resonance (SPR)
Assay type: binding
How it was run: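 Receptor was Ni-captured and EDC/NHS-fixed on an NTA chip; running buffer HEPES pH 8.0 with NaCl, Tween 20, BSA and 1.0% DMSO.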

[1] = surface plasmon resonance, peptide vs hTfR, read-out: KD value, hTfR binding by SPR (class symbol)
[2] = SPR, hTfR No. 894 variants with PEG12c linker (Table 2), read-out: KD
[3] = binding to hTfR by SPR, Table 2 peptides, read-out: KD value (SPR) class
[4] = surface plasmon resonance, peptide vs hTfR, read-out: KD value for hTfR by SPR (class symbol)

transferrin receptor (hTfR), sequence (P02786 whole entry): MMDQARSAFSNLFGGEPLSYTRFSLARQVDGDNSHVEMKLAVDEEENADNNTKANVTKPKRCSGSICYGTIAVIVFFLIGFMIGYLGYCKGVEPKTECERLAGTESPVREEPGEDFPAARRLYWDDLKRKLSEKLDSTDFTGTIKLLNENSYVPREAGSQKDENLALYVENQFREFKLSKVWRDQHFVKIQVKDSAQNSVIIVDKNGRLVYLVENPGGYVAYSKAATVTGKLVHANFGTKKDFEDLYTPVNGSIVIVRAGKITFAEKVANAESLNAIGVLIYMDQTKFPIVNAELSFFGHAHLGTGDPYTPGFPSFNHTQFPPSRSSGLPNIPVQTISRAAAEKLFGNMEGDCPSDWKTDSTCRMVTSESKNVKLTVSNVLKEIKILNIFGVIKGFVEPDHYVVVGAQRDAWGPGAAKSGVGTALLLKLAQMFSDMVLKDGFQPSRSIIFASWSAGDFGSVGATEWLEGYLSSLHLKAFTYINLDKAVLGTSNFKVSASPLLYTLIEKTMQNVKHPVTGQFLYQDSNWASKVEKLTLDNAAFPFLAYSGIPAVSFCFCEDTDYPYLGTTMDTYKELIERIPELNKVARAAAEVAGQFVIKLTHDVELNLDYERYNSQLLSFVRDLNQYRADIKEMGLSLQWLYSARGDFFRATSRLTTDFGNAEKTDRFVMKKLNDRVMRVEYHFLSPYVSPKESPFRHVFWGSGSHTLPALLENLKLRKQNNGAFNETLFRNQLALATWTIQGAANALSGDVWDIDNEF

- Kd [1]: 1 to 100 nM
Structure (SMILES): CC[C@H](C)[C@@H]1NC(=O)[C@H](Cc2ccc(OC)nc2)NC(=O)[C@H](Cc2ccc(O)cc2)NC(=O)[C@H](CC(N)=O)NC(=O)[C@H](Cc2c[nH]c3ccccc23)N(C)C(=O)[C@H](C(C)C)NC(=O)[C@H](Cc2cccc(Cl)c2)N(C)C(=O)[C@H](C(C)C)NC(=O)[C@H](C)NC(=O)CSC[C@@H](C(N)=O)NC(=O)[C@H](Cc2ccc(O)cc2)N(C)C(=O)[C@H](Cc2ccccc2)NC(=O)[C@@H](CCCNC(=N)N)NC(=O)C(C)(C)NC(=O)[C@H]([C@@H](C)CC)NC1=O [compound 323]

- Kd [1]: 1 to 100 nM
Structure (SMILES): CC[C@H](C)[C@@H]1NC(=O)[C@H](Cc2ccc(OC)cc2)NC(=O)[C@H](Cc2ccc(O)cc2)NC(=O)[C@H](CC(N)=O)NC(=O)[C@H](Cc2c[nH]c3ccccc23)N(C)C(=O)[C@H](C(C)C)NC(=O)[C@H](Cc2cccc(Cl)c2)N(C)C(=O)[C@H](C(C)C)NC(=O)[C@H](C)NC(=O)CSC[C@@H](C(=O)NCC(=O)NCC(=O)NCC(=O)NCC(=O)N[C@@H](CO)C(=O)N[C@@H](CO)C(=O)N[C@@H](CS)C(N)=O)NC(=O)[C@H](Cc2ccc(O)cc2)N(C)C(=O)[C@H](Cc2ccccc2)NC(=O)[C@@H](CCCNC(=N)N)NC(=O)[C@H](CCCNC(=N)N)NC(=O)[C@H](CCCCN)NC1=O [compound 344]

- Kd [2]: 1 to 100 nM
Structure (SMILES): CCCCC[C@@H]1NC(=O)[C@H](C)NC(=O)CSC[C@@H](C(=O)NCCOCCOCCOCCOCCOCCOCCOCCOCCOCCOCCOCCOCCC(N)=O)NC(=O)[C@H](Cc2ccc(O)cc2)N(C)C(=O)[C@H](Cc2ccc(O)cc2)NC(=O)[C@H](CCCNC(=N)N)NC(=O)[C@H](CCCNC(=N)N)NC(=O)[C@H]([C@@H](C)CC)NC(=O)[C@H]([C@@H](C)CC)NC(=O)[C@H](Cc2ccc(O)cc2)NC(=O)[C@H](Cc2ccc(O)cc2)NC(=O)[C@H](CC(N)=O)NC(=O)[C@H](Cc2c[nH]c3ccccc23)NC(=O)[C@H](C(C)C)NC(=O)[C@H](Cc2ccccc2)N(C)C1=O [compound 130] ({CH2CO}-A[Ahp(2)][NMeF]VWNYYIIRRY[NMeY]C[PEG12]-NH2; thioether N-15)

- Kd [3]: 100 to 1000 nM
Structure (SMILES): CC[C@H](C)[C@@H]1NC(=O)[C@H](Cc2ccc(OC)cc2)NC(=O)[C@H](Cc2ccc(O)cc2)NC(=O)[C@H](CC(N)=O)NC(=O)[C@H](Cc2c[nH]c3ccccc23)N(C)C(=O)[C@H](C(C)C)NC(=O)[C@H](Cc2cccc(Cl)c2)N(C)C(=O)[C@H](CCC(=O)O)NC(=O)[C@H](C)NC(=O)CSC[C@@H](C(=O)N[C@H](CCC(=O)O)C(=O)NCC(=O)NCC(=O)NCC(=O)N[C@@H](CO)C(=O)N[C@@H](CO)C(=O)N[C@@H](CS)C(N)=O)NC(=O)[C@H](Cc2ccc(O)cc2)N(C)C(=O)[C@H](Cc2ccccc2)NC(=O)[C@@H](CCCNC(=N)N)NC(=O)[C@H](CCCNC(=N)N)NC(=O)[C@H]([C@@H](C)CC)NC1=O [compound 235]

- Kd (SPR, hTfR, class symbols A-D, read-out: KD): 1 to 100 nM
Structure (SMILES): CC[C@H](C)[C@@H]1NC(=O)[C@H](Cc2ccc(O)cc2)NC(=O)[C@H](Cc2ccc(O)cc2)NC(=O)[C@H](CC(N)=O)NC(=O)[C@H](Cc2cn(CC(=O)O)c3ccccc23)NC(=O)[C@H](C(C)C)NC(=O)[C@H](Cc2ccccc2)N(C)C(=O)[C@H](C(C)C)NC(=O)[C@H](C)NC(=O)CSC[C@@H](C(N)=O)NC(=O)[C@H](Cc2ccc(O)cc2)N(C)C(=O)[C@H](Cc2ccc(O)cc2)NC(=O)[C@H](CCCNC(=N)N)NC(=O)C(C)(C)NC(=O)[C@H]([C@@H](C)CC)NC1=O [compound 469]

Structure (SMILES): CC[C@H](C)[C@@H]1NC(=O)[C@H](Cc2ccc(OC)cc2)NC(=O)[C@H](Cc2ccc(O)cc2)NC(=O)[C@H](CC(N)=O)NC(=O)[C@H](Cc2c[nH]c3ccccc23)N(C)C(=O)[C@H](C(C)C)NC(=O)[C@H](Cc2cccc(Cl)c2)N(C)C(=O)[C@H](CCC(=O)O)NC(=O)[C@H](C)NC(=O)CSC[C@@H](C(=O)NCC(=O)NCC(=O)NCC(=O)NCC(=O)N[C@@H](CO)C(=O)N[C@@H](CO)C(=O)N[C@@H](CS)C(N)=O)NC(=O)[C@H](Cc2ccc(O)cc2)N(C)C(=O)[C@H](Cc2ccccc2)NC(=O)[C@@H](CCCNC(=N)N)NC(=O)[C@H](CCCNC(=N)N)NC(=O)[C@H]([C@@H](C)CC)NC1=O [compound 234]
- Kd: 1 to 100 nM

- Kd [4]: 1 to 100 nM
Structure (SMILES): CC[C@H](C)[C@@H]1NC(=O)[C@H](Cc2ccc(O)cc2)NC(=O)[C@H](Cc2ccc(O)cc2)NC(=O)[C@H](CC(N)=O)NC(=O)[C@H](Cc2c[nH]c3ccccc23)N(C)C(=O)[C@H](C(C)C)NC(=O)[C@H](Cc2cccc(Cl)c2)N(C)C(=O)[C@@H]2CCC(=O)NCCCC[C@H](NC(=O)[C@H]([C@@H](C)CC)NC1=O)C(=O)N[C@@H](CCCNC(=N)N)C(=O)N[C@@H](Cc1ccc(O)cc1)C(=O)N(C)[C@@H](Cc1ccc(O)cc1)C(=O)N[C@H](C(N)=O)CSCC(=O)N[C@@H](C)C(=O)N2 [compound 412]

- Kd [1]: 1 to 100 nM
Structure (SMILES): CC[C@H](C)[C@@H]1NC(=O)[C@H](Cc2ccc(O)cc2)NC(=O)[C@H](Cc2ccc(O)cc2)NC(=O)[C@H](CC(N)=O)NC(=O)[C@H](Cc2c[nH]c3ccccc23)NC(=O)[C@H](C(C)C)NC(=O)[C@H](Cc2ccccc2)N(C)C(=O)[C@H](C(C)C)NC(=O)[C@H](C)NC(=O)CSC[C@@H](C(=O)N(C)CC(=O)N(C)CC(=O)N(C)CC(N)=O)NC(=O)[C@H](Cc2ccc(O)cc2)N(C)C(=O)[C@H](Cc2ccc(O)cc2)NC(=O)[C@H](CCCNC(=N)N)NC(=O)[C@H](CCCNC(=N)N)NC(=O)[C@H]([C@@H](C)CC)NC1=O [compound 298]

- Kd [4]: 1 to 100 nM
Structure (SMILES): CC[C@H](C)[C@@H]1NC(=O)[C@H](Cc2ccc(O)cc2)NC(=O)[C@H](Cc2ccc(O)cc2)NC(=O)[C@H](CC(N)=O)NC(=O)[C@H](Cc2c[nH]c3ccccc23)NC(=O)[C@H](C(C)C)NC(=O)[C@H](Cc2ccccc2)N(C)C(=O)[C@H](C(C)C)NC(=O)[C@H](C)NC(=O)CSC[C@@H](C(=O)NCC(=O)NCC(=O)NCC(=O)NCC(=O)N[C@@H](CO)C(=O)N[C@@H](CO)C(=O)N[C@@H](CSCC(=O)NC)C(N)=O)NC(=O)[C@H](Cc2ccc(O)cc2)N(C)C(=O)[C@H](Cc2ccc(O)cc2)NC(=O)[C@H](CCCNC(=N)N)NC(=O)[C@H](CCCNC(=N)N)NC(=O)[C@H]([C@@H](C)CC)NC1=O [compound 443]

- Kd (surface plasmon resonance, hTfR, read-out: KD value for hTfR by SPR (class symbol)): 1 to 100 nM
Structure (SMILES): CC[C@H](C)[C@@H]1NC(=O)[C@H](Cc2ccc(OC)cc2)NC(=O)[C@H](Cc2ccc(O)cc2)NC(=O)[C@H](CC(N)=O)NC(=O)[C@H](Cc2c[nH]c3ccccc23)N(C)C(=O)[C@H](C(C)C)NC(=O)[C@H](Cc2cccc(Cl)c2)N(C)C(=O)[C@H](C(C)C)NC(=O)[C@H](C)NC(=O)CSC[C@@H](C(=O)NCC(=O)N[C@H](CCC(=O)O)C(=O)NCC(=O)N[C@H](CCCCN)C(=O)N[C@@H](CO)C(=O)N[C@@H](CO)C(=O)N[C@@H](CS)C(N)=O)NC(=O)[C@H](Cc2ccc(O)cc2)N(C)C(=O)[C@H](Cc2ccccc2)NC(=O)[C@@H](CCCNC(=N)N)NC(=O)[C@H](CCCNC(=N)N)NC(=O)[C@H]([C@@H](C)CC)NC1=O [compound 404] ({CH2CO}-AV[NMePhe(3-Cl)]V[NMeW]NYY(Me)IIR[dR]F[NMeY]CG[dE]G[dK]SSC-NH2; thioether N-15)

- Kd [1]: 1 to 100 nM
Structure (SMILES): CC[C@H](C)[C@@H]1NC(=O)[C@H](Cc2ccc(O)cc2)NC(=O)[C@H](Cc2ccc(O)cc2)NC(=O)[C@H](CC(N)=O)NC(=O)[C@H](Cc2c[nH]c3ccccc23)N(C)C(=O)[C@H](C(C)C)NC(=O)[C@H](Cc2cccc(Cl)c2)N(C)C(=O)[C@H](C(C)C)NC(=O)[C@H](C)NC(=O)CSC[C@@H](C(=O)NCCOCCOCCOCCOCCC(N)=O)NC(=O)[C@H](Cc2ccc(O)cc2)N(C)C(=O)[C@H](Cc2ccccc2)NC(=O)[C@@H](CCCNC(=N)N)NC(=O)C(C)(C)NC(=O)[C@H]([C@@H](C)CC)NC1=O [compound 322]

- Kd (SPR, hTfR, class symbols A-D, read-out: KD (column without head, continuation of the table series)): 1 to 100 nM
Structure (SMILES): CC[C@H](C)[C@@H]1NC(=O)[C@H](Cc2ccc(O)cc2)NC(=O)[C@H](Cc2ccc(O)cc2)NC(=O)[C@H](CC(N)=O)NC(=O)[C@H](Cc2c[nH]c3ccccc23)NC(=O)[C@H](C(C)C)NC(=O)[C@H](Cc2ccccc2)N(C)C(=O)[C@H](C(C)C)NC(=O)[C@H](C)NC(=O)CSC[C@@H](C(=O)NCC(=O)N[C@@H](CCCCN)C(N)=O)NC(=O)[C@H](Cc2ccc(O)cc2)N(C)C(=O)[C@H](Cc2ccc(O)cc2)NC(=O)[C@H](CCCNC(=N)N)NC(=O)[C@H](CCCNC(=N)N)NC(=O)[C@H]([C@@H](C)CC)NC1=O [compound 525]

- Kd [3]: 1 to 100 nM
Structure (SMILES): CC[C@H](C)[C@@H]1NC(=O)[C@H](Cc2ccc(O)cc2)NC(=O)[C@H](Cc2ccc(O)cc2)NC(=O)[C@H](CC(N)=O)NC(=O)[C@H](Cc2c[nH]c3ccccc23)NC(=O)[C@H](C(C)C)NC(=O)[C@H](Cc2ccccc2)NC(=O)[C@H](C(C)C)NC(=O)[C@H](C)NC(=O)CSC[C@@H](C(N)=O)NC(=O)[C@H](Cc2ccc(O)cc2)N(C)C(=O)[C@H](Cc2ccc(O)cc2)NC(=O)[C@H](CCCNC(=N)N)NC(=O)[C@H](CCC(=O)O)NC(=O)[C@H]([C@@H](C)CC)NC1=O [compound 251]

- Kd [1]: > 1000 nM
Structure (SMILES): CC[C@H](C)[C@@H]1NC(=O)[C@H](Cc2ccc(OCC(=O)O)cc2)NC(=O)[C@H](Cc2ccc(O)cc2)NC(=O)[C@H](CC(N)=O)NC(=O)[C@H](Cc2c[nH]c3ccccc23)N(C)C(=O)[C@H](C(C)C)NC(=O)[C@H](Cc2cccc(Cl)c2)N(C)C(=O)[C@H](C(C)C)NC(=O)[C@H](C)NC(=O)CSC[C@@H](C(N)=O)NC(=O)[C@H](Cc2ccc(O)cc2)N(C)C(=O)[C@H](Cc2ccccc2)NC(=O)[C@@H](CCCNC(=N)N)NC(=O)C(C)(C)NC(=O)[C@H]([C@@H](C)CC)NC1=O [compound 324]

- Kd [2]: 1 to 100 nM
Structure (SMILES): CC[C@H](C)[C@@H]1NC(=O)[C@H](Cc2ccc(O)cc2)NC(=O)[C@H](Cc2ccc(O)cc2)NC(=O)[C@H](CC(N)=O)NC(=O)[C@H](CCc2ccccc2)NC(=O)[C@H](C(C)C)NC(=O)[C@H](Cc2ccccc2)N(C)C(=O)[C@H](C(C)C)NC(=O)[C@H](C)NC(=O)CSC[C@@H](C(=O)NCCOCCOCCOCCOCCOCCOCCOCCOCCOCCOCCOCCOCCC(N)=O)NC(=O)[C@H](Cc2ccc(O)cc2)N(C)C(=O)[C@H](Cc2ccc(O)cc2)NC(=O)[C@H](CCCNC(=N)N)NC(=O)[C@H](CCCNC(=N)N)NC(=O)[C@H]([C@@H](C)CC)NC1=O [compound 128]
